Results taken from patent publication US20100256105A1, “NOVEL COMPOUNDS” (AstraZeneca R&D, priority 2009, published 2010).

Target: T1, recombinant human GR (Homo sapiens, UniProt P04150)
T1 construct: purchased Panvera/Invitrogen P2812 (kit P2893)
T1 sequence (P04150 1-777): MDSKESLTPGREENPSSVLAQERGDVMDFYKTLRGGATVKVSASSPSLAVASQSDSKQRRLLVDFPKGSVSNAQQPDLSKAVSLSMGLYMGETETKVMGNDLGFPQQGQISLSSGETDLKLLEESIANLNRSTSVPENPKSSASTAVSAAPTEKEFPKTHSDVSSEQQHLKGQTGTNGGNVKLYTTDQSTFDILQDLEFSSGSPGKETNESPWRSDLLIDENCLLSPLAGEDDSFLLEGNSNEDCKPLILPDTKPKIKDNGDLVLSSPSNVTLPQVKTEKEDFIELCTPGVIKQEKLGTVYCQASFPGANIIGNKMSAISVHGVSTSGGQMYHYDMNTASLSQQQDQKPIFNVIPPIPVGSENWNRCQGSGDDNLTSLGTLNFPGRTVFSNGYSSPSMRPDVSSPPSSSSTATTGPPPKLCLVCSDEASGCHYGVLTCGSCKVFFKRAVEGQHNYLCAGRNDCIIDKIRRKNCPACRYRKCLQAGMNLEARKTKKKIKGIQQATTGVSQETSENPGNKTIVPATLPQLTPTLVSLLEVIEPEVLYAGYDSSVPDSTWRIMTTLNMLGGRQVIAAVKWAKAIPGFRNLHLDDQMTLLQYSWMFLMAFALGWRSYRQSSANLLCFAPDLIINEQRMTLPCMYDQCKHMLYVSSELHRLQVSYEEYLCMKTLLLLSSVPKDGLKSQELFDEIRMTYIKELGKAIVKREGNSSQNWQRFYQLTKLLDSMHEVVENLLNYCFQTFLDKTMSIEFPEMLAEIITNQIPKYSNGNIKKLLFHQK
Experiment: Human Glucocorticoid Receptor (GR) Assay, fluorescence polarization
Settings: GS Red tracer, 2 hours at room temperature, 100% control 10 μM Dexamethasone, read-out: Inhibition of GR binding, IC50
Protocol: Human Glucocorticoid Receptor (GR) Assay The assay is based on a commercial kit from Panvera/Invitrogen (Part number P2893). The assay technology is fluorescence polarization. The kit utilises recombinant human GR (Panvera, Part number P2812), a Fluoromone™ labelled tracer (GS Red, Panvera, Part number P2894) and a Stabilizing Peptide 10× (Panvera, Part number P2815). The GR and Stabilizing Peptide reagents are stored at −70° C. while the GS Red is stored at −20° C. Also included in the kit are 1M DTT (Panvera, Part number P2325, stored at −20° C.) and GR Screening buffer 10× (Panvera, Part number P2814, stored at −70° C. initially but once thawed stored at room temperature). Avoid repeated freeze/thaws for all reagents. The GR Screening buffer 10× comprises 100 mM potassium phosphate, 200 mM sodium molybdate, 1 mM EDTA and 20% DMSO. Test compounds (1 μL) and controls (1 μL) in 100% DMSO were added to black polystyrene 384-well plates (Greiner low volume black flat-bottom, part number 784076). 0% control was 100% DMSO and 100% control was 10 μM Dexamethasone. Background solution (8 μL; assay buffer 10×, Stabilizing Peptide, DTT and ice cold MQ water) was added to the background wells. GS Red solution (7 μL; assay buffer 10×, Stabilizing Peptide, DTT, GS Red and ice cold water) was added to all wells except background wells. GR solution (7 μL; assay buffer 10×, Stabilizing Peptide, DTT, GR and ice cold water) was added to all wells. The plate was sealed and incubated in a dark at room temperature for 2 hours. The plate was read in an Analyst plate reader (LJL Biosystems/Molecular Devices Corporation) or other similar plate reader capable of recording fluorescence polarization (excitation wavelength 530 nm, emission wavelength 590 nm and a dichroic mirror at 561 nm).

SMILES	IC50 [nM]
CC1=C[C@@H]2[C@H]([C@@H](O)C[C@@]3(C)[C@H]2CC[C@]3(OC(=O)c2cocn2)C(=O)SCF)[C@@]2(C)Cc3cnn(-c4ccc(F)nc4)c3C=C12 [Example 14, (1R,3aS,3bS,10aR,10bS,11S,12aS)-1-{[(fluoromethyl)sulfanyl]carbonyl}-7-(6-fluoropyridin-3-yl)-11-hydroxy-5,10a,12a-trimethyl-1,2,3,3a,3b,7,10,10a,10b,11,12,12a-dodecahydrocyclopenta[5,6]naphtho [1,2-f]indazol-1-yl 1,3-oxazole-4-carboxylate]	2.9
C[C@]12Cc3cnn(-c4ccc(F)nc4)c3C=C1C=C[C@@H]1[C@@H]2[C@@H](O)C[C@@]2(C)[C@H]1CC[C@]2(OC(=O)c1cocn1)C(=O)SCC#N [Example 6, (1R,3aS,3bS,10aR,10bS,11S,12aS)-1-{[cyanomethyl)sulfanyl]carbonyl}-7-(6-fluoropyridin-3-yl)-11-hydroxy-10a,12a-dimethyl-1,2,3,3a,3b,7,10,10a,10b,11,12,12a-dodecahydrocyclopenta[5,6]naphtho [1,2-f]indazol-1-yl 1,3-oxazole-4-carboxylate]	1.8
CCC(=O)O[C@]1(C(=O)SCF)CC[C@H]2[C@@H]3C=CC4=Cc5c(cnn5-c5ccc(F)nc5)C[C@]4(C)[C@H]3[C@@H](O)C[C@@]21C [Example 3, (1R,3aS,3bS,10aR,10bS,11S,12aS)-1-{[(Fluoromethyl)sulfanyl]carbonyl}-7-(6-fluoropyridin-3-yl)-11-hydroxy-10a,12a-dimethyl-1,2,3,3a,3b,7,10,10a,10b,11,12,12a-dodecahydrocyclopenta[5,6]naphtho[1,2-f]indazol-1-ylpropanoate]	1.4

Now from value to molecule:

IC50 [nM]	SMILES
2.3	COCC(=O)O[C@]1(C(=O)SCC#N)CC[C@H]2[C@@H]3C=C(C)C4=Cc5c(cnn5-c5ccc(F)nc5)C[C@]4(C)[C@H]3[C@@H](O)C[C@@]21C [Example 1, (1R,3aS,3bS,10aR,10bS,11S,12aS)-1-{[(Cyanomethyl)sulfanyl]carbonyl}-7-(6-fluoropyridin-3-yl)-11-hydroxy-5,10a,12a-trimethyl-1,2,3,3a,3b,7,10,10a,10b,-11,12,12a-dodecahydrocyclopenta[5,6]naphtho[1,2-f]indazol-1-yl methoxyacetate]
1.5	CC1=C[C@@H]2[C@H]([C@@H](O)C[C@@]3(C)[C@H]2CC[C@]3(OC(=O)C2CC2)C(=O)SCC#N)[C@@]2(C)Cc3cnn(-c4ccc(F)nc4)c3C=C12 [Example 13, (1R,3aS,3bS,10aR,10bS,11S,12aS)-1-{[cyanomethyl)sulfanyl]carbonyl}-7-(6-fluoropyridin-3-yl)-11-hydroxy-5,10a,12a-trimethyl-1,2,3,3a,3b,7,10,10a,10b,11,12,12a-dodecahydrocyclopenta[5,6]naphtho [1,2-f]indazol-1-yl cyclopropanecarboxylate]
